This note sets out measurements from patent US6156754A, “Glycoconjugates of modified camptothecin derivatives (A-or B-ring linkage)” (Bayer Aktiengesellschaft, priority 1996, dated 2000).

Converted amounts (≈) assume the structure as drawn. Structures can show the parent of a compound that is named as a salt.

As a reminder, the MTD is the largest dose that counted as tolerated.

For series [1], the system named is SW 480. The series can be described thus: Growth inhibition (MTT) test, cytotoxic action on SW 480. Format: cell-based, human. The settings on record: SW 480 cell line, growth checked after day 3 and day 6. As to the method: (§1) 1. Growth Inhibition Test for the Determination of the Cytotoxic Properties
(§2) The human large intestine cell lines SW 480 and HT 29 (ATCC No. CCL 228 and HBT 38) and the mouse melanoma cell line B 16 F 10 were grown in Roux dishes in RPMI 1640 medium with addition of 10% FCS. They were then trypsinized and taken up in RPMI plus 10% FCS to a cell count of 50,000 cells/ml. 100 μl of cell suspension/well were added to a 96 microwell plate and incubated for 1 day at 37° C. in a CO2 incubator. A further 100 μl of RPMI Medium and 1 μl of DMSO containing the test substances were then added. The growth was checked after day 3 and day 6. To this end, 40 μl of MTT solution (3-(4,5-dimethylthiazol-2-yl)-2,5-diphenyl-tetrazolium bromide) having a starting concentration of 5 mg/ml of H2 O were added to each microwell. Incubation was carried out for 5 hours in a CO2 incubator at 37° C. The medium was then aspirated and 100 μl of i-propanol/well were added. After shaking for 30 min with 100 μl of H2 O, the extinction was measured at 540 nm using a Titertek Multiscan MCC/340 (Flow).
(§3) The cytotoxic action is indicated in Table 1 as the IC50 value (dose which inhibits the cell growth to 50% of the cell growth of the control) in each case for the SW 480 and HT 29 and B16F10 cell lines: […]

Series [2] concerns HT 29. The series can be described thus: Growth inhibition (MTT) test, cytotoxic action on HT 29. Format: cell-based, human. The settings on record: HT 29 cell line, growth checked after day 3 and day 6. On the procedure: as §1, §2, §3
Series [3] concerns B16F10. Briefly: Growth inhibition (MTT) test, cytotoxic action on B16F10. It is filed as cell-based, mouse. Particulars: B16F10 cell line, growth checked after day 3 and day 6. As to the method:
as §1, §2, §3

Series [4] is described as follows: In vivo inhibition of tumour growth in the nude mouse model (LXFL 529 xenograft). Also on record: species or system human tumour in athymic nude mice (NMRI nu/nu). The settings on record: mouse, in vivo, ip; nude mice, i.p. day 1, 2, 3; read-out: maximum tolerable dose (MTD). On the procedure: (§4) 3. In Vivo Inhibition of Tumour Growth in the Nude Mouse Model
(§5) For all in vivo experiments for investigation of the inhibition of tumour growth athymic nude mice (NMRI nu/nu strain) were used. The selected large-cell lung carcinoma LXFL 529 was grown by serial passage in nude mice. The human origin of the tumour was confirmed by isoenzymatic and immunohistochemical methods.
(§6) The tumour was implanted subcutaneously into both flanks of 6 to 8 week old nu/nu nude mice. The treatment was started, depending on the doubling time, as soon as the tumours had reached a diameter of 5-7 mm. The mice were assigned to the treatment group and the control group (5 mice per group with 8-10 assessable tumours) by randomization. The individual tumours of the control group all grew progessively.
(§7) The size of the tumours was measured in two dimensions by means of a slide gauge. The tumour volume, which correlated well with the cell count, was then used for all evaluations. The volume was calculated according to the formula "length×breadth×breadth/2" ([a×b^2 ]/2, a and b represent two diameters at right angles).
(§8) The values of the relative tumour volume (RTV) were calculated for each individual tumour by dividing the tumour size on day X with the tumour size on day 0 (at the time of randomization). The mean values of the RTV were then used for the further evaluation.
(§9) The inhibition of the increase of the tumour volume (tumour volume of the test group/control group, T/C, in per cent) was the final measured value.
(§10) The administration of the compounds was carried out intraperitoneally (i.p.) on day 1, 2 and 3 after randomization.

The test system of series [5] is large-cell lung carcinoma LXFL 529. The description is as above. Also on record: species or system human tumour in athymic nude mice (NMRI nu/nu). The settings on record: for Relative body weight on day 7 / Relative tumour volume on day 14 / Survival time: i.p. day 1, 2, 3; for Relative body weight on day 7: control 102; for Relative tumour volume on day 14: control 691; for Survival time: each of five mice. On the procedure:
as §4, §5, §6, §7, §8, §9, §10

For series [6], the system named is Bone marrow cells. Briefly: Haematopoietic activity: bone marrow stem cell colony formation. Format: cell-based, mice. On the procedure:
2. Haematopoietic Activity of Glycoconjugates in Comparison with the Underlying Active Compound
Bone marrow cells are washed out of mice femurs. 10^5 cells are incubated at 37° C. and 7% CO2 in McCoy 5A medium (0.3% agar) together with recombinant murine GM-CSF (Genzyme; stem cell colony formation) and the substances (10^-4 to 100 μg/ml). 7 days later, the colonies ([…]) and clusters (17-50 cells) are counted.
As shown in Tab. 2 with reference to Example 2.1, the glycoconjugates investigated show, compared with the underlying active compound, an inhibition of the bone marrow stem cell proliferation which is reduced approximately by the factor 100.

For the compound `CCC1(O)C(=O)OCc2c1cc1n(c2=O)Cc2c-1nc1cc3c(cc1c2CN1CCN(C(=O)[C@H](C)NC(=O)[C@H](CCCCNC(=S)Nc2ccc(O[C@H]4O[C@@H](C)[C@@H](O)[C@@H](OC)[C@@H]4O)cc2)NC(=S)Nc2ccc(O[C@H]4O[C@@H](C)[C@@H](O)[C@@H](OC)[C@@H]4O)cc2)CC1)OCCO3` (mixture of isomers) [Example 3.1], the IC50 in series [1] is 0.08 nM; in series [2], 0.06 nM; in series [3], 0.5 nM.
For `CCC1(O)C(=O)OCc2c1cc1n(c2=O)Cc2c-1nc1cc3c(cc1c2CN1CCN(C(=O)[C@H](C)NC(=O)[C@H](CCCCN)NC(=S)Nc2ccc(O[C@H]4O[C@@H](C)[C@@H](O)[C@@H](OCC(=O)O)[C@@H]4O)cc2)CC1)OCCO3` (mixture of isomers) [Example 3.3, 10,11-(Ethylenedioxy)-7-{1-[N^α -(O-(3-O-carboxymethyl-β-L-fucopyranosyl)-4-hydroxy-phenylaminothiocarbonyl]-L-lysyl-L-alanyl]-piperazin-4-yl-methyl}-20(R/S)-camptothecin, hydrochloride], the IC50 in series [1] came out at 0.25 nM; in series [2] it was 0.1 nM.
With `CC[C@@]1(O)C(=O)OCc2c1cc1n(c2=O)Cc2c-1nc1ccccc1c2COC(=O)[C@H](C)NC(=O)[C@H](CCCCNC(=S)Nc1ccc(O[C@H]2O[C@@H](C)[C@@H](O)[C@@H](OC)[C@@H]2O)cc1)NC(=S)Nc1ccc(O[C@H]2O[C@@H](C)[C@@H](O)[C@@H](OC)[C@@H]2O)cc1` [Example 1.1, 7-{N^α,N^ε -bis-[O-(3-O-Methyl-β-L-fucopyranosyl)-4-hydroxy-phenylaminothiocarbonyl]-L-lysyl-L-alanyloxymethyl}-camptothecin], the IC50 in series [1] worked out at 0.015 nM; in series [2], 0.025 nM; in series [3], 0.18 nM. Further, the MTD in series [4] came out at 12.5 mg/kg/day. For the same compound, the “Relative body weight on day 7” value in series [5] (3.125 mg/kg/day) is reported as 93 % of day 0; in series [5] (6.25 mg/kg/day) it was 93 % of day 0; in series [5] (12.5 mg/kg/day (MTD)), 72 % of day 0. The “Relative tumour volume on day 14” value in series [5] (3.125 mg/kg/day), in series [5] (6.25 mg/kg/day) and in series [5] (12.5 mg/kg/day (MTD)) was 0.1 % of day 0 throughout. Moreover, the Survival time in series [5] (3.125 mg/kg/day), in series [5] (6.25 mg/kg/day) and in series [5] (12.5 mg/kg/day (MTD)) was above 21 days throughout. Also, in series [5] (at MTD, 1/2 MTD and 1/4 MTD), the “therapeutic efficacy (remission of the tumour)” value was “complete remission of the tumour”.
For `CC[C@@]1(O)C(=O)OCc2c1cc1n(c2=O)Cc2c-1nc1ccccc1c2COC(=O)[C@@H](NC(=O)[C@H](CCCCN)NC(=S)Nc1ccc(O[C@H]2O[C@@H](C)[C@@H](O)[C@@H](OCC(=O)O)[C@@H]2O)cc1)C(C)C` [Example 1.3, 7-{N^α -[O-(3-O-Carboxymethyl-β-L-fucopyranosyl)-4-hydroxy-phenylamino-thiocarbonyl]-L-lysyl-L-valyloxymethyl}-camptothecin, hydrochloride], the values for the IC50 in series [1] and in series [2] were 0.04 nM and 0.03 nM, respectively.
Take `CC[C@@]1(O)C(=O)OCc2c1cc1n(c2=O)Cc2c-1nc1ccccc1c2COC(=O)[C@@H](NC(=O)[C@H](CCCCN)NC(=S)Nc1ccc(O[C@H]2O[C@@H](C)[C@@H](O)[C@@H](OC)[C@@H]2O)cc1)C(C)C` [Example 1.4, 7-{N^α -[O-(3-O-Methyl-β-L-fucopyranosyl)-4-hydroxy-phenylamino-thiocarbonyl)-L-lysyl-L-valyoxymethyl}-camptothecin, Hydrochloride]: the IC50 was 0.03 nM in series [1], 0.04 nM in series [2] and 0.2 nM in series [3].
Consider `CC[C@@]1(O)C(=O)OCc2c1cc1n(c2=O)Cc2cc3c(NC(=O)[C@H](C)NC(=O)[C@H](CCCCNC(=S)Nc4ccc(O[C@H]5O[C@@H](C)[C@@H](O)[C@@H](OC)[C@@H]5O)cc4)NC(=S)Nc4ccc(O[C@H]5O[C@@H](C)[C@@H](O)[C@@H](OC)[C@@H]5O)cc4)cccc3nc2-1` [Example 2.1, 9-{N^α,N^ε -bis-[O-(3-O-Methyl-β-L-fucopyranosyl)-4-hydroxy-phenylamino-thiocarbonyl]-L-lysyl-L-alanyl-amino}-camptothecin], for which the IC50 in series [1] amounted to 0.2 nM; in series [2], 0.06 nM; in series [3], 2 nM. In addition, the “reduction of inhibition of bone marrow stem cell proliferation compared with the underlying active compound (factor)” value in series [6] (glycoconjugate vs underlying active compound (2.1.a)) is listed as around 100. The “IC50 (inhibition of bone marrow stem cell proliferation)” value in series [6] (mouse bone marrow cells with GM-CSF, 7 days) stood at 170 ng/mL.
`CC[C@@]1(O)C(=O)OCc2c1cc1n(c2=O)Cc2cc3c(N)cccc3nc2-1` [Example 2.1.a, 9-Amino-camptothecin, reference compound]: the IC50 in series [6] (Bone marrow cell, 168 h, mouse bone marrow cells with GM-CSF, 7 days, read-out: IC50 (inhibition of bone marrow stem cell proliferation)) was determined as 1.6 ng/mL (≈ 4.4 nM).
